Test system: CN0375-F725-PDC KRAS spheroid viability
Assay: Anticancer human tumor CN0375-F725-PDC patient-derived colon carcinoma cell line growth inhibition [KRAS2]
Conditions: spheroids with HUVEC and MSC; for IC50: curve of first compound; for viability, T/C: stronger effect = lower value
Method in brief: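 Combination screen of spheroid viability in tumor-cell co-cultures with endothelial (HUVEC) and mesenchymal stem cell stroma. Each agent was tested in half-log dilutions, topping at clinical Cmax or at 10 microM without a known Cmax.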

[1] = second compound 0.1 µM, first compound 0.000316 µM
[2] = second compound 0.1 µM, first compound 0.001 µM
[3] = second compound 0.1 µM, first compound 0.00316 µM
[4] = second compound 0.1 µM, first compound 0.01 µM
[5] = second compound 0.1 µM, first compound 0.0316 µM
[6] = second compound 0.1 µM, first compound 0.1 µM
[7] = second compound 0.316 µM, first compound 0.000316 µM
[8] = second compound 0.316 µM, first compound 0.001 µM
[9] = second compound 0.316 µM, first compound 0.00316 µM
[10] = second compound 0.316 µM, first compound 0.01 µM
[11] = second compound 0.316 µM, first compound 0.0316 µM
[12] = second compound 0.316 µM, first compound 0.1 µM
[13] = second compound 1 µM, first compound 0.000316 µM
[14] = second compound 1 µM, first compound 0.001 µM
[15] = second compound 1 µM, first compound 0.00316 µM
[16] = second compound 1 µM, first compound 0.01 µM
[17] = second compound 1 µM, first compound 0.0316 µM
[18] = second compound 1 µM, first compound 0.1 µM
[19] = second compound 3.16 µM, first compound 0.000316 µM
[20] = second compound 3.16 µM, first compound 0.001 µM
[21] = second compound 3.16 µM, first compound 0.00316 µM
[22] = second compound 3.16 µM, first compound 0.01 µM
[23] = second compound 3.16 µM, first compound 0.0316 µM
[24] = second compound 3.16 µM, first compound 0.1 µM
[25] = second compound 10 µM, first compound 0.000316 µM
[26] = second compound 10 µM, first compound 0.001 µM
[27] = second compound 10 µM, first compound 0.00316 µM
[28] = second compound 10 µM, first compound 0.01 µM
[29] = second compound 10 µM, first compound 0.0316 µM
[30] = second compound 10 µM, first compound 0.1 µM
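Note: spheroids exposed to agents for 7 days.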

| Structure (SMILES) | IC50 (second compound 0.1 µM) | IC50 (second compound 0.316 µM) | IC50 (second compound 1 µM) | IC50 (second compound 3.16 µM) | IC50 (second compound 10 µM) | viability, T/C [1] | viability, T/C [2] | viability, T/C [3] | viability, T/C [4] | viability, T/C [5] | viability, T/C [6] | viability, T/C [7] | viability, T/C [11] | viability, T/C [12] | viability, T/C [17] | viability, T/C [18] | viability, T/C [23] | viability, T/C [24] | viability, T/C [29] | viability, T/C [30] | other results |
| --- | --- | --- | --- | --- | --- | --- | --- | --- | --- | --- | --- | --- | --- | --- | --- | --- | --- | --- | --- | --- | --- |
| Cn1ncnc1[C@H]1c2n[nH]c(=O)c3cc(F)cc(c23)N[C@@H]1c1ccc(F)cc1 + C=CC(=O)N1CCN(c2nc(=O)n(-c3c(C)ccnc3C(C)C)c3nc(-c4c(O)cccc4F)c(F)cc23)C(C)C1 | > 100 nM | > 100 nM | > 100 nM | > 100 nM | > 100 nM | 110% | 103% | 100% | 103% | 102% | 98.2% | 107% | 99.3% | 99.9% | 104% | 99.5% | 108% | 99.7% | 95.7% | 93.5% | viability, T/C [8]: 114%; viability, T/C [9]: 104%; viability, T/C [10]: 96.3%; viability, T/C [13]: 107%; viability, T/C [14]: 104%; viability, T/C [15]: 109%; viability, T/C [16]: 104%; viability, T/C [19]: 114%; viability, T/C [20]: 110%; viability, T/C [21]: 108%; viability, T/C [22]: 104%; viability, T/C [25]: 112%; viability, T/C [26]: 106%; viability, T/C [27]: 99.3%; viability, T/C [28]: 96.8% |
| CCNC(=O)CC1N=C(c2ccc(Cl)cc2)c2cc(OC)ccc2-n2c(C)nnc21 (stereo not given) + CC1OCC2(CCN(c3cnc(Sc4ccnc(N)c4Cl)c(N)n3)CC2)C1N | 7510 nM | 4630 nM | 3690 nM | 2610 nM | 1460 nM |  |  |  |  | 92.8% | 88.3% |  | 88% | 78.9% | 85.2% | 78.2% | 79.4% | 73.6% | 72.3% | 73.8% | viability, T/C (second compound 0.1 µM, first compound 0.316 µM): 79.4%; viability, T/C (second compound 0.1 µM, first compound 1 µM): 72.6%; viability, T/C (second compound 0.1 µM, first compound 3.16 µM): 60.8%; viability, T/C (second compound 0.1 µM, first compound 10 µM): 46.1%; viability, T/C (second compound 0.316 µM, first compound 0.316 µM): 68.5%; viability, T/C (second compound 0.316 µM, first compound 1 µM): 69.7%; viability, T/C (second compound 0.316 µM, first compound 3.16 µM): 58.8%; viability, T/C (second compound 0.316 µM, first compound 10 µM): 37.3%; viability, T/C (second compound 1 µM, first compound 0.316 µM): 70.5%; viability, T/C (second compound 1 µM, first compound 1 µM): 66.5%; viability, T/C (second compound 1 µM, first compound 3.16 µM): 51.6%; viability, T/C (second compound 1 µM, first compound 10 µM): 37%; viability, T/C (second compound 3.16 µM, first compound 0.316 µM): 62.2%; viability, T/C (second compound 3.16 µM, first compound 1 µM): 61.9%; viability, T/C (second compound 3.16 µM, first compound 3.16 µM): 48.3%; viability, T/C (second compound 3.16 µM, first compound 10 µM): 36.8%; viability, T/C (second compound 10 µM, first compound 0.316 µM): 60.7%; viability, T/C (second compound 10 µM, first compound 1 µM): 53%; viability, T/C (second compound 10 µM, first compound 3.16 µM): 45%; viability, T/C (second compound 10 µM, first compound 10 µM): 36.9% |
| CC(C)n1nc(-c2ccc3oc(N)nc3c2)c2c(N)ncnc21 + CC1OCC2(CCN(c3cnc(Sc4ccnc(N)c4Cl)c(N)n3)CC2)C1N | 58.1 nM | 42.2 nM | 33.1 nM | 26.3 nM | 7.76 nM | 91.6% | 89.6% | 73.9% | 68.6% | 54.2% | 45.7% | 84.5% | 54.6% | 43.2% | 51% | 40.5% | 46.9% | 37.9% | 39.9% | 33.8% | viability, T/C [8]: 84.9%; viability, T/C [9]: 73.1%; viability, T/C [10]: 60.7%; viability, T/C [13]: 82.5%; viability, T/C [14]: 81.7%; viability, T/C [15]: 68.6%; viability, T/C [16]: 61.5%; viability, T/C [19]: 74.6%; viability, T/C [20]: 74.3%; viability, T/C [21]: 67.5%; viability, T/C [22]: 57.3%; viability, T/C [25]: 63.8%; viability, T/C [26]: 65%; viability, T/C [27]: 56.4%; viability, T/C [28]: 47.5% |
